From article PMC12176268, “Structural Features and Photophysical and Antiproliferative Properties of Me2N‑pbt-Cycloplatinated Complexes with Picolinate Ligands” (Inorganic Chemistry, 2025)
Read-outs that look alike come from different tables or passages of the source.

Tests used:
[1] = system: A549; parameters: method as in not given; settings: previously reported by the authors, ref not given, cited from earlier work
[2] = system: HeLa; parameters: method as in not given; settings: previously reported by the authors, ref not given, cited from earlier work
[3] = Stability in serum-free DMEM containing 5% DMSO by UV–vis; type: physicochemical; settings: DMEM with 5% DMSO, 25 μM, 37 °C; for stability in serum-free DMEM, UV–vis spectral changes, first 4 h: dark or with 5 min irradiation at 450 nm
From the text: The stability of complexes 1–4 was then investigated in more biologically relevant media by UV–visible spectroscopy. First, the stability of the complexes was studied in phosphate-buffered saline (PBS) containing 5% DMSO (Figure S30). […] Only a decrease in the intensity of all bands was observed, which could be attributed to partial aggregation and/or precipitation. […] The stability of complexes 1–4 was next studied in serum-free DMEM cell culture containing 5% DMSO (Figure S31). […] This final species seemed to have spectral features similar to those observed for complex 4 (Figure S31A). […] The similarity of the spectral features of the transformed species in all cases seemed to point to the formation of a common species upon incubation in DMEM, which we tentatively attribute to the decoordination of the picolinate ligands with a substituent-dependent kinetics; the COOH group favored the release of the picolinate ligand, while both NH2 and OH substituents seemed to slow down this process.
The UV–vis spectra of complexes 1–4 were recorded in PBS:DMSO (95/5) and serum-free DMEM:DMSO (95/5) at a concentration of 25 μM on a Cary 50 spectrophotometer (Varian).

[4] = Solubility (statements); type: physicochemical
[5] = system: MDA-MB-231; assay: MTT cell viability assay on MDA-MB-231 cells, dark and 450 nm irradiation; type: cell-based, human; settings: for EC50: MTT
From the text: (§1) (C∧N) cyclometalated Pt(II) complexes have been previously reported to have strong antiproliferative activities when associated with phenanthroline-based, diphosphine, acyclic diamino carbenes, or picolinate ligands. In particular, (Me2N-pbt)-cyclometalated platinum complexes have been previously reported by some of us to have antiproliferative properties in the micromolar range on a panel of cancer cell lines, prompting us to investigate the anticancer properties of complexes 1–4 in dark conditions and, considering their high quantum yield (ϕΔ) of ^1O2 generation, under irradiation conditions. Due to the poor solubility of the complexes in an aqueous environment, complexes 1–4 were first dissolved in DMSO and diluted in the culture media to reach a final concentration of 1% DMSO when incubated with the cells. All complexes were screened against the so-called “triple-negative” breast cancer cell line MDA-MB-231, lung adenocarcinoma cell line A549, and the noncancerous breast cell line MCF-10A for 72 h in dark conditions and under 5 min irradiation at 450 nm (see Experimental Section for details). The irradiation time was kept short to prevent light-induced toxicity of the energetic wavelength observed at longer irradiation times (data not shown). The measurement of the effective concentration at 50% (EC50) was carried out using the classical MTT assay, and the data are provided in Table .
(§2) In dark conditions, we could notice a strong influence of substituents on the picolinate ligands. […] This can be correlated with its poor stability in the culture medium mentioned above, which might reduce its cellular uptake. […] However, in dark conditions, no particular selectivity for cancer cells could be observed with similar activity measured against the noncancerous cell line MCF-10A. For the “light” experiments, the cells were preincubated with the complexes for 4 h in the dark, irradiated at 450 nm for 5 min, and then put back in the dark until 72 h. The photoactivity index (PI) values, defined as the ratio between the EC50 in dark conditions and the EC50 after irradiation for each cell line, are shown in Figure .
(§3) The human lung adenocarcinoma cell line A549 and human breast cancer cell line MDA-MB-231 were cultivated in DMEM (Dulbecco’s modified Eagle’s medium) containing GlutaMax I supplemented with 10% FBS at 37 °C in a humidified atmosphere and 5% CO2. The noncancerous cell line MCF-10A was maintained in DMEM:F12 (1:1) cell culture media, 5% heat-inactivated horse serum, supplemented with HEPES (20 mM), L-glutamine (2 mM), epidermal growth factor (20 ng/mL), hydrocortisone (500 ng/mL), cholera toxin (100 ng/mL), and insulin (10 μg/mL). Cell viability was evaluated by using a colorimetric method based on the tetrazolium salt MTT [3-(4,5-dimethylthiazol-2-yl)-2,5-diphenyltetrazolium bromide], which is reduced by viable cells to yield purple formazan crystals. Cells were seeded in 96-well plates at a density of 40000 cells/mL (100 μL per well). Stock solutions were prepared in DMSO for complexes 1–4 and in water for cisplatin. […] For dark experiments, after overnight attachment, a dilution series of the compounds was added to the medium, and the cells were incubated for a further 72 h. For the irradiated experiments, after overnight attachment, a dilution series of the compounds was added to the medium, and the cells were preincubated for 4 h. The cells were then irradiated at 450 nm for 5 min with a Kessil Lamp (power: 3 mW/cm^2, 1.13 × 10^–8 Einstein/s at 20 cm distance between the light source and 96-well plate) and the incubation was continued until 72 h. After 72 h, the medium was removed and the cells were incubated with MTT solution in PBS (10 μL of 5 mg/mL) for 2–3 h. The formed purple formazan crystals were dissolved in 100 μL of DMSO by thorough shaking, and the absorbance at 580 nm was read using a microplate reader (FLUOstar OPTIMA, BMG Labtech). Each test was performed with at least 3 replicates and repeated at least 3 times. […]

[6] = system: MCF-10A; assay: MTT cell viability assay on noncancerous MCF-10A cells, dark and 450 nm irradiation; type: cell-based, human; settings: for EC50: MTT
From the text: as §1, §2, §3

[7] = system: A549; assay: MTT cell viability assay on A549 cells, dark and 450 nm irradiation; type: cell-based, human; settings: for EC50: MTT
From the text: as §1, §2, §3

[8] = Singlet oxygen generation, NIR emission at 1274 nm versus phenalenone; type: physicochemical; settings: aerated acetonitrile 5 × 10^–5 M, 298 K, excitation 365 nm, reference phenalenone
Procedure: In aerated DMSO solutions, complexes 1–3 display a fluorescence band only at ca 510 nm, attributed to ^1LL′CT/^1ILCT, due to easy quenching of the phosphorescence by oxygen. However, upon prolonged photoexcitation at 365 nm, a continuous enhancement of the phosphorescence band is observed. Simply irradiating with a hand UV–vis lamp, the initial blue-green emission gradually shifts to the orange enhanced emission. The phosphorescence increases its maximum intensity in ca 15 1, 8 2, or 12 min 3 (Figures and S23). […] This relatively rare behavior has been previously observed by us , and other groups, and is explained by the occurrence of a local sensitization caused by energy transfer from the low-energy triplet to ^3O2-producing singlet ^1O2, which is able to selectively react with the solvent creating a free oxygen microenvironment that switches-on a phosphorescence band due to ^3ILCT at 580 nm. The strong sensitivity of the phosphorescence emission in these complexes encourages us to determine their efficiency as ^1O2 sensitizers. The singlet oxygen generation of complexes 1–3 was examined in acetonitrile solution (5 × 10^–5 M) using a near-infrared detector upon excitation at 365 nm, detecting the characteristic emission profile of ^1O2 at λem ∼ 1274 nm (Figure ).

[9] = system: MDA-MB-231; parameters: method as in earlier work; settings: 72 h, dark; footnote b: values taken from ref (number not given); cited from earlier work
[10] = system: MCF-10A; parameters: method as in earlier work; settings: 72 h, dark; footnote b: values taken from ref (number not given); cited from earlier work
[11] = system: A549; parameters: method as in earlier work; settings: 72 h, dark; footnote b: values taken from ref (number not given); cited from earlier work
[12] = system: CT-DNA; assay: Interaction with CT-DNA by circular dichroism; type: binding, calf; settings: 50 μM CT-DNA, 50 μM cisplatin, 37 °C, 24 h in the dark (positive control)
Procedure: Platinum(II) complexes, such as cisplatin, presenting exchangeable ligands are well known to interact with puric bases of DNA, leading to the formation of intra- and interstrand cross-links and in turn to transcription inhibition, cell cycle arrest, and ultimately cell death. Based on the reactivity in the cell culture medium, the interaction of complexes 1–4 and cisplatin with CT-DNA was investigated by circular dichroism (CD) spectroscopy after incubation at 37 °C for 24 h in the dark or for 4 h incubation and 5 min irradiation at 450 nm, followed by 20 h incubation, following a reported protocol. The CD spectrum of CT-DNA presents a positive peak at 280 nm, assigned to base stacking, and a negative peak at 245 nm, assigned to helicity.
A stock solution of calf thymus DNA (CT-DNA) was prepared in 5 mM TRIS·HCl, and 50 mM NaCl (pH 7.4). The concentration of nucleotides was assayed at 260 nm using ε = 6600 M^–1.cm^–1 (c = 3.38 mM). […] Circular dichroism spectra (238–340 nm, 5 scans) were recorded in a 1 cm path length cell on a J-815 CD spectrometer (JASCO) at 20 °C with 0.1 nm data pitch, 50 nm/min scan speed, and 1 nm bandwidth.

[13] = 4 h preincubation, 5 min irradiation at 450 nm, then dark until 72 h, read-out: EC50 MDA-MB-231 light
[14] = 72 h incubation at 37 °C, dark, read-out: EC50 MDA-MB-231 dark
[15] = 4 h preincubation, 5 min irradiation at 450 nm, then dark until 72 h, read-out: EC50 MCF-10A light
[16] = 72 h incubation at 37 °C, dark, read-out: EC50 MCF-10A dark
[17] = 4 h preincubation, 5 min irradiation at 450 nm, then dark until 72 h, read-out: EC50 A549 light
[18] = 72 h incubation at 37 °C, dark, read-out: EC50 A549 dark

Molecule: [Pt(Me2N-pbt)(o-dpb)]
- IC50 ([1]; 1 min of irradiation (396 nm), read-out: IC50 A549 upon irradiation): 830 nM
- activity in the dark, A549 ([1]; dark): inactive
- IC50 ([2]; 1 min of irradiation (396 nm), read-out: IC50 HeLa upon irradiation): 1500 nM
- activity in the dark, HeLa ([2]; dark): inactive

Molecule: [Pt(Me2N-pbt)(4-COOH-pic-κN,O)] [Complex 4]
- stability in serum-free DMEM, UV–vis spectral changes, first 4 h [3]: quantitative transformation
- solubility [4]: only soluble in DMSO
- photoactivity index (PI), EC50 dark / EC50 after irradiation, MDA-MB-231 ([5]; 5 min irradiation at 450 nm): very limited phototoxicity
- EC50 [5, 13]: 15900 ± 3600 nM
- EC50 [5, 14]: 42400 ± 4200 nM
- photoactivity index (PI), EC50 dark / EC50 after irradiation, MCF-10A ([6]; 5 min irradiation at 450 nm): very limited phototoxicity
- EC50 [6, 15]: 15000 ± 900 nM
- EC50 [6, 16]: 21700 ± 4200 nM
- photoactivity index (PI), EC50 dark / EC50 after irradiation, A549 ([7]; 5 min irradiation at 450 nm): very limited phototoxicity
- EC50 [7, 17]: > 100000 nM
- EC50 [7, 18]: > 100000 nM

Molecule: [Pt(Me2N-pbt)(pic-κN,O)] [Complex 1]
- stability in serum-free DMEM, UV–vis spectral changes, 24 h [3]: further evolved
- stability in serum-free DMEM, UV–vis spectral changes, first 4 h [3]: first spectral modification
- EC50 [5, 13]: 170 ± 50 nM
- EC50 [5, 14]: 500 ± 60 nM
- EC50 [6, 15]: 300 ± 100 nM
- EC50 [6, 16]: 470 ± 50 nM
- quantum yield (ϕΔ) of 1O2 [8]: 13.6%
- EC50 [7, 17]: 570 ± 30 nM
- EC50 [7, 18]: 1500 ± 100 nM

Molecule: N.N.[Cl][Pt][Cl] [Cisplatin]
- EC50 [9]: 20400 ± 3400 nM
- EC50 [10]: 2900 ± 800 nM
- EC50 [11]: 1700 ± 500 nM
- modification of the CD spectrum of CT-DNA [12]: decrease of the band at 245 nm and an increase of the band at 280 nm

Molecule: [Pt(Me2N-pbt)(3-NH2-pic-κN,O)] [Complex 2]
- stability in serum-free DMEM, UV–vis spectral changes, 24 h [3]: spectral features of both complexes changed
- stability in serum-free DMEM, UV–vis spectral changes, first 4 h [3]: no spectral changes
- EC50 [5, 13]: 260 ± 50 nM
- EC50 [5, 14]: 800 ± 200 nM
- EC50 [6, 15]: 400 ± 100 nM
- EC50 [6, 16]: 700 ± 200 nM
- quantum yield (ϕΔ) of 1O2 [8]: 17.4%
- EC50 [7, 17]: 1000 ± 200 nM
- EC50 [7, 18]: 1900 ± 400 nM
